Here are results for three compounds from US7968093B2, “Fully human antibodies directed against the human insulin-like growth factor-1 receptor” (ImClone LLC, priority 2003, dated 2011).

Experiment [1] relates to BxPC-3 human pancreatic carcinoma cells. Put plainly: BxPC-3 xenograft, A12 with CPT-11 or gemcitabine. Type of experiment: in vivo, athymic nu/nu mice. To be noted: for animals with partial tumor regressions: after five weeks of treatment. As for the experimental part: Athymic nu/nu mice were injected subcutaneously with 2×10^6 BxPC-3 human pancreatic carcinoma cells mixed 1:1 with Matrigel. […] All treatments were administered by intraperitoneal injection. Tumor measurements were recorded twice weekly using the formula Volume=(π/6)l×w^2.
At day 18 three animals per group were sacrificed and the tumors resected for midpoint histological evaluation. Treatment and tumor measurements continued on the remaining animals until day 44 with the exception of the TBS group. […] At termination of the study final tumor measurements were recorded, animals sacrificed, and four per group had tumors resected for endpoint histological evaluation.

The test system of experiment [2] is HT-29 human colorectal cancer cells. Nature of the experiment: HT-29 xenograft, 2F8 alone or with CPT-11. Type of experiment: in vivo, athymic nude (nu/nu) mice. To be noted: 2F8 0.5 mg or 1 mg IP every three days; CPT-11 100 mg/kg IP once a week. How it is done: We were interested to determine if the anti-IGF-IR antibodies were capable of inhibiting human tumor growth in vivo in a nude mouse xenograft model. Tumors were induced in 3-4 week old athymic nude (nu/nu) mice by subcutaneous injection of 2-3 million viable HT-29 human colorectal cancer cells in cell culture medium. The tumors were allowed to establish and antibody treatment started when the tumor volume reached 200 mm^3. Ten animals were injected with tumor cells per treatment group. Antibody was injected intraperitoneally (IP) every three days at 1 mg or 0.5 mg in 0.5 ml TBS. The drug irenotecan (CPT-11) (LKT Laboratories) was injected IP (100 mg/kg) once a week for four weeks from the initiation of antibody treatment. Control animals received a class matched irrelevant human IgG antibody. Tumor measurements were performed at regular intervals using Vernier calipers, measuring height, width, and length and calculated to determine the total tumor volume. The study was terminated when control tumors reached 3000 mm^3.

Experiment [3] deals with HT-29 human colon carcinoma. Put plainly: HT-29 xenograft, A12 with CPT-11 or paclitaxel. Type of experiment: in vivo, nu/nu mice. To be noted: for inhibition of growth of HT-29 xenografts compared to TBS control: single agent. How it is done:
[…] nu/nu mice were injected subcutaneously with HT-29 human colon carcinoma cell suspension, at 5×10^6 cells in 0.4 ml mixed 1:1 with Matrigel. […] All treatments were administered by intraperitoneal injection.
Treatment continued for six weeks and tumor measurements were recorded twice weekly using the formula Volume=(π/6)l×w^2. At day 21 four animals per group were sacrificed and the tumors resected for histological evaluation. Treatment and tumor measurements continued on the remaining animals until day 40. At that time final tumor measurements were recorded, animals sacrificed, and four per group had tumor resected for endpoint histological evaluation.

The mark [4] stands for this setting: day 19, ip, A12 1 mg 3 times per week, irinotecan 1 mg or gemcitabine 2.5 mg every 7 days.
[5] abbreviates: day 12, ip, A12 1 mg 3 times per week, irinotecan 2 mg or paclitaxel 121 μg every 7 days.

For the compound `CCc1c2c(nc3ccc(OC(=O)N4CCC(N5CCCCC5)CC4)cc13)-c1cc3c(c(=O)n1C2)COC(=O)[C@]3(O)CC` [CPT-11, irinotecan], the “animals with partial tumor regressions” value in experiment [1] is on record as “no tumor regressions”. For the same compound, the T/C % is recorded as 52% in experiment [1] (setting [4]); 45% in experiment [1] (day 23, same regimens); 35% in experiment [1] (day 26, same regimens); 34% in experiment [1] (day 30, same regimens); 34% in experiment [1] (day 32, same regimens); 26% in experiment [1] (day 37, same regimens). For the same compound, the T/C % in experiment [3] (setting [5]) is listed as 63%; in experiment [3] (day 15, same regimens), 59%; in experiment [3] (day 19, same regimens) it was 61%; in experiment [3] (day 22, same regimens), 52%; in experiment [3] (day 26, same regimens), 47%; in experiment [3] (day 29, same regimens), 45%. The T/C % is listed as 40% in experiment [3] (day 33, same regimens); 40% in experiment [3] (day 36, same regimens); 41% in experiment [3] (day 40, same regimens). In experiment [2], the “inhibition of tumor growth” value was “responses were similar to treatment with CPT-11 alone”. For the same compound, the “inhibition of growth of HT-29 xenografts compared to TBS control” value in experiment [3] was “significantly (P<0.02) inhibited”.
As for `Nc1ccn([C@@H]2O[C@H](CO)[C@@H](O)C2(F)F)c(=O)n1` [Gemcitabine, gemcitabine], the “animals with partial tumor regressions” value in experiment [1] was “no tumor regressions”. The “Regressions (individual tumor volumes < day 1 of treatment)” value is given as 0/11 in experiment [1] (day 19, animals regressing/animals in group); 0/8 in experiment [1] (day 23); 0/8 in experiment [1] (day 26); 0/8 in experiment [1] (day 30); 0/8 in experiment [1] (day 32); 0/8 in experiment [1] (day 37). The “Regressions (individual tumor volumes < day 1 of treatment)” value in experiment [1] (day 41) was 0/8; in experiment [1] (day 44) it was 0/7. Moreover, the T/C % in experiment [1] (setting [4]) is reported as 68%; in experiment [1] (day 23, same regimens) it was 65%; in experiment [1] (day 26, same regimens) it was 58%; in experiment [1] (day 30, same regimens), 56%; in experiment [1] (day 32, same regimens), 48%; in experiment [1] (day 37, same regimens), 37%.
As for `CC(=O)O[C@H]1C(=O)[C@@]2(C)[C@H]([C@H](OC(=O)c3ccccc3)[C@]3(O)C[C@H](OC(=O)[C@H](O)[C@@H](NC(=O)c4ccccc4)c4ccccc4)C(C)=C1C3(C)C)[C@]1(OC(C)=O)CO[C@@H]1C[C@@H]2O` [paclitaxel], the T/C % was found to be 66% in experiment [3] (setting [5]); 59% in experiment [3] (day 15, same regimens); 62% in experiment [3] (day 19, same regimens); 56% in experiment [3] (day 22, same regimens); 54% in experiment [3] (day 26, same regimens); 55% in experiment [3] (day 29, same regimens). The T/C % in experiment [3] (day 33, same regimens) was found to be 52%; in experiment [3] (day 36, same regimens) it was 45%; in experiment [3] (day 40, same regimens) it was 52%. Also, the “inhibition of growth of HT-29 xenografts compared to TBS control” value in experiment [3] was “significantly (P<0.02) inhibited”.
